In one test the test system is Bone marrow progenitors. The test is described as follows: Cytotoxicity, colony formation. The format is cell-based, human. Conditions: 14 days of treatment, colonies counted. As for the experimental part:
The evaluation of the off-target effects of NV651 was performed by ImQuest BioSciences Inc. (Frederick, MD, USA) by analyzing the cytotoxicity in a panel of primary cells. NV651 was evaluated at a concentration of 30 µM and five serial half-logarithmic dilutions in triplicate. The positive control compounds for each cell type were purchased from Sigma-Aldrich (St. Louis, MO, USA) and were as follows: Unstimulated human peripheral blood mononuclear cells (PBMCs), phytohemagglutinin (PHA)-stimulated PBMCs, monocytes/macrophages, dendritic cells, hepatocytes, induced pluripotent stem cell (iPS) neurons: […] AZT, kidney cells (RPTEC): cisplatin and iPS cardiomyocytes: Doxazosin. Bone marrow progenitor cells (Invitrogen, Waltham, MA, USA) were suspended in cell culture medium (Iscove-modified Dulbecco medium) containing 15% FBS, 10% giant tumor-conditioned medium (Bone Marrow Plus, Sigma-Aldrich, St. […] Cells (1 × 10^5 cells/well) were seeded in 6-well plates containing NV651 in triplicate. Cells were incubated for 14 days, and colonies (more than 30 cells) were counted.

The target of the next test is Cyp40 (Homo sapiens, UniProt Q08752). Briefly: PPIase activity assay (chymotrypsin-coupled). Conditions: free-cell assay; Cyp equilibrated 1 h at 5 °C with inhibitor; read-out: absolute IC50, PPIase activity Cyp40. The test is classed as biochemical. As for the experimental part: (§1) The PPIase activity of CypA, CypB, CypD and Cyp40 was determined by following the rate of hydrolysis of N-succinyl-Ala-Ala-Pro-Phe-p-nitroanilide by chymotrypsin, a digestive enzyme that only hydrolyzes the trans form of the peptide. Therefore, the hydrolysis of the cis form, the concentration of which is maximized by using a stock dissolved in trifluoroethanol containing 470-mM LiCl, is only possible with the isomerization from the cis to the trans form. […] The reaction was started with the peptide addition, and the change in absorbance was monitored spectrophotometrically at a 6-s interval for 6 min. The blank rates of hydrolysis (in the absence of Cyps) were subtracted from the rates in the presence of Cyps. The initial rates of the enzymatic reaction were analyzed by a first-order regression analysis of the time course of the change in absorbance.

The next test concerns the target CypB (Homo sapiens, UniProt P23284). The test is described as follows: PPIase activity assay (chymotrypsin-coupled). The test is classed as biochemical. On the procedure: as §1
The target in the next test is CypD (Homo sapiens, UniProt P30405). Briefly: PPIase activity assay (chymotrypsin-coupled). Conditions: free-cell assay; Cyp equilibrated 1 h at 5 °C with inhibitor; read-out: absolute IC50, PPIase activity CypD. The test is classed as biochemical. As for the experimental part: as §1
For a further test, the system named is HEP3B2.1-7-Luc. Briefly: Cell proliferation assay: Acumen. The format is cell-based. Conditions: Homo sapiens, 168 h, 7 days, read-out: Abs IC50 growth inhibition. As for the experimental part:
(§2) Compound screening and comparison of the antiproliferative effect of NV651 and sorafenib were performed by Shanghai ChemPartner Co., Ltd. (Shanghai, China). Cells were seeded in a 96-well plate at the following concentrations: LIXC-003 400 cells/well, LIXC-004 1000 cells/well, LIXC-086 5000 cells/well, LIXC-066 1250 cells/well, LIXC-012 2000 cells/well, LIXC-006 1250 cells/well, HEPG2 1000 cells/well, HUH7 2000 cells/well and Hep3B2.1-7-Luc 1000 cells/well. Cells were treated with either sorafenib or NV651 at 0.004, 0.011, 0.034, 0.103, 0.309, 0.926, 2.778, 8.333, 25 µM or an equivalent volume with DMSO.
(§3) After 7 days, cells were trypsinized and collected. Fifty microliters of cell suspension were added to 50 µL of 2-µM Calcein AM (Invitrogen, Cat# C3099, Waltham, MA, USA) diluted in HBSS and placed in a black-walled 96-well plate. The plate was left for 30 min at room temperature, followed by a scan with Acumen eX3.
(§4) Growth inhibition for direct cell counting (%) by Acumen was calculated as:(1) 100−100∗Experimental count−Blank/DMSO count −Blank

The subject of a further test is HEPG2. The test is described as follows: Cell proliferation assay: Acumen. The format is cell-based. Conditions: Homo sapiens, 168 h, 7 days, read-out: Abs IC50 growth inhibition. As for the experimental part: as §2, §3, §4
In the next test the test system is HUH7. The test is described as follows: Cell proliferation assay: Acumen. The test is classed as cell-based. To be noted: Homo sapiens, Huh-7, 168 h, 7 days, read-out: Abs IC50 growth inhibition. As for the experimental part: as §2, §3, §4
Another test relates to LIXC-003. Briefly: Cell proliferation assay: Acumen. Conditions: Homo sapiens, 168 h, 7 days, read-out: Abs IC50 growth inhibition. The test is classed as cell-based. On the procedure: as §2, §3, §4
The next test relates to LIXC-004. Briefly: Cell proliferation assay: Acumen. The format is cell-based. Conditions: Homo sapiens, 168 h, 7 days, read-out: Abs IC50 growth inhibition. On the procedure: as §2, §3, §4
In another test the test system is LIXC-006. Briefly: Cell proliferation assay: Acumen. The format is cell-based. Conditions: Homo sapiens, 168 h, 7 days, read-out: Abs IC50 growth inhibition. On the procedure:
as §2, §3, §4

In a further test the test system is LIXC-012. The test is described as follows: Cell proliferation assay: Acumen. The test is classed as cell-based. To be noted: Homo sapiens, 168 h, 7 days, read-out: Abs IC50 growth inhibition. As for the experimental part:
as §2, §3, §4

The test system of another test is LIXC-066. Briefly: Cell proliferation assay: Acumen. The format is cell-based. Conditions: Homo sapiens, 168 h, 7 days, read-out: Abs IC50 growth inhibition. As for the experimental part:
as §2, §3, §4

In the next test the test system is LIXC-086. The test is described as follows: Cell proliferation assay: Acumen. To be noted: Homo sapiens, 168 h, 7 days, read-out: Abs IC50 growth inhibition. The test is classed as cell-based. As for the experimental part: as §2, §3, §4
In a further test the test system is Dendritic cells. Briefly: Cytotoxicity, CellTiter Glo. The test is classed as cell-based. To be noted: Homo sapiens, Dendritic cell, 168 h, 7 days of treatment, read-out: IC50 (50% reduction in cell viability). As for the experimental part:
The evaluation of the off-target effects of NV651 was performed by ImQuest BioSciences Inc. (Frederick, MD, USA) by analyzing the cytotoxicity in a panel of primary cells. NV651 was evaluated at a concentration of 30 µM and five serial half-logarithmic dilutions in triplicate. The positive control compounds for each cell type were purchased from Sigma-Aldrich (St. Louis, MO, USA) and were as follows: Unstimulated human peripheral blood mononuclear cells (PBMCs), phytohemagglutinin (PHA)-stimulated PBMCs, monocytes/macrophages, dendritic cells, hepatocytes, induced pluripotent stem cell (iPS) neurons: […] AZT, kidney cells (RPTEC): cisplatin and iPS cardiomyocytes: Doxazosin. The isolation was based on Nair, Archer. Briefly, freshly separated PBMCs from one donor were suspended in DPBS at 4 × 10^6 cells per mL and cultured in a T-75 flask. Cells were incubated for 30 min and then washed 5–7 times with DPBS to remove nonadherent cells. Cells were cultured in RPMI 1640 supplemented with 10% FBS, 2-mM L-glutamine, 25-mM HEPES, […], 100-µg/mL streptomycin, 50-ng/mL rhGM-CSF and 50-ng/mL rhIL-4 and incubated for 7 days. After the incubation period, cells were cultured in the same media with the addition of LPS (10 ng/mL) for two days. […]
In general terms: In ATP-based viability assays light output follows the ATP content of the culture.

The subject of a further test is RPTECs. Briefly: Cytotoxicity, CellTiter Glo. The test is classed as cell-based, human. To be noted: 3 days of treatment, read-out: IC50 (50% reduction in cell viability). As for the experimental part: The evaluation of the off-target effects of NV651 was performed by ImQuest BioSciences Inc. (Frederick, MD, USA) by analyzing the cytotoxicity in a panel of primary cells. NV651 was evaluated at a concentration of 30 µM and five serial half-logarithmic dilutions in triplicate. The positive control compounds for each cell type were purchased from Sigma-Aldrich (St. Louis, MO, USA) and were as follows: Unstimulated human peripheral blood mononuclear cells (PBMCs), phytohemagglutinin (PHA)-stimulated PBMCs, monocytes/macrophages, dendritic cells, hepatocytes, induced pluripotent stem cell (iPS) neurons: […] AZT, kidney cells (RPTEC): cisplatin and iPS cardiomyocytes: Doxazosin. Human primary renal proximal tubule cells (hRPTEC, Lonza, Basel, Switzerland) were cultured at 1 × 10^4 cells/well in supplemented REGM medium (Lonza, Basel, Switzerland). Following overnight incubation for adherence, cells were treated with NV651 in triplicate. After a 3-day treatment, CellTiter Glo (Promega, Madison, WI, USA) was used. CellTiter Glo was performed to evaluate cell viability. CellTiter Glo Luminescent Cell Viability Assay (Promega, Madison, WI, USA) was performed according to the manufacturer’s instructions.

The test system of another test is iPS cardiomyocytes. Briefly: Cytotoxicity, CellTiter Glo. The format is cell-based. Conditions: Homo sapiens, Cardiomyocyte, 72 h, 3 days of treatment, read-out: IC50 (50% reduction in cell viability). As for the experimental part: The evaluation of the off-target effects of NV651 was performed by ImQuest BioSciences Inc. (Frederick, MD, USA) by analyzing the cytotoxicity in a panel of primary cells. NV651 was evaluated at a concentration of 30 µM and five serial half-logarithmic dilutions in triplicate. The positive control compounds for each cell type were purchased from Sigma-Aldrich (St. Louis, MO, USA) and were as follows: Unstimulated human peripheral blood mononuclear cells (PBMCs), phytohemagglutinin (PHA)-stimulated PBMCs, monocytes/macrophages, dendritic cells, hepatocytes, induced pluripotent stem cell (iPS) neurons: […] AZT, kidney cells (RPTEC): cisplatin and iPS cardiomyocytes: Doxazosin. iPS cardiomyocytes (Cellular Dynamics, Madison, WI, USA) were seeded in a 96-well plate precoated with 0.1% gelatin (Sigma-Aldrich, St. Louis, MO, USA) in a plating medium (Cellular dynamics, Madison, WI, USA) at a concentration of 1.5 × 10^4 cells/well. After 48 h of incubation, cells were washed, and NV651 diluted in the maintenance medium (Cellular Dynamics, Madison, WI, USA) was added. After 3 days of incubation, cell viability was measured with CellTiter Glo (Promega, Madison, WI, USA). CellTiter Glo was performed to evaluate cell viability. CellTiter Glo Luminescent Cell Viability Assay (Promega, Madison, WI, USA) was performed according to the manufacturer’s instructions.

By IC50 is commonly meant the concentration needed to halve the response being measured.

Sequence of CypB (P23284 34-216): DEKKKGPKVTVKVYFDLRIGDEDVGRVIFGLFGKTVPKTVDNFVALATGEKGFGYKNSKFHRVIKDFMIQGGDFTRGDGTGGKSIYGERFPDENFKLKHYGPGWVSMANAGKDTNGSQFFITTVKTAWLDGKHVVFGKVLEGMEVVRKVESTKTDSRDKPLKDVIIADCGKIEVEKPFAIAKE
Sequence of Cyp40 (Q08752 whole entry): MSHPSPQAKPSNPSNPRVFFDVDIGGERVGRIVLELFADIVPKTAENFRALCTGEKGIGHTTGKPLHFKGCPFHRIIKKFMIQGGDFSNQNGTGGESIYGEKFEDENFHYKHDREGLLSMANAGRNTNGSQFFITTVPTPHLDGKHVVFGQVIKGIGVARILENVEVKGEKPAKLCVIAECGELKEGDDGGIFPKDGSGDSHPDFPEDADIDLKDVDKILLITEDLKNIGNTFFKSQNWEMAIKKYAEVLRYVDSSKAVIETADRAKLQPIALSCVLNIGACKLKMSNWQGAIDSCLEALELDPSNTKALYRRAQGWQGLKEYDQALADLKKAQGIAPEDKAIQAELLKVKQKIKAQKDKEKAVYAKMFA
Sequence of CypD (P30405 30-207): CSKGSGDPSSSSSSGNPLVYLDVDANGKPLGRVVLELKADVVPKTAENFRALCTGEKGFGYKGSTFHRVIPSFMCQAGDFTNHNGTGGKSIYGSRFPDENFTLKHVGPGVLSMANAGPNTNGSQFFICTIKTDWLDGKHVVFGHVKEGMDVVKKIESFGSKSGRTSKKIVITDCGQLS

With `Cc1cn([C@H]2C[C@H](N=[N+]=[N-])[C@@H](CO)O2)c(=O)[nH]c1=O` [AZT, reference compound], the IC50 with Bone marrow progenitors was 890 nM.

As to `CC[C@H]1C[C@H](C)[C@@]2(NC1=O)O[C@@H](C[C@H](O)[C@@H](C)CC/C=C/C=C(\C)[C@@H]1C/C=C/C=C/[C@H](O)[C@H](C)[C@@H](O)[C@@H](CCC(C)=O)C(=O)N[C@@H](C(C)C)C(=O)N[C@@H](Cc3cccc(O)c3)C(=O)N3CCC[C@H](N3)C(=O)O1)[C@H](C)[C@H](O)[C@@H]2C` [SfA, Sanglifehrin A, reference compound], the results for the IC50 at Cyp40, at CypB and at CypD were 5.62 nM, 5.12 nM and 5.25 nM, respectively.

On to `CNC(=O)c1cc(Oc2ccc(NC(=O)Nc3ccc(Cl)c(C(F)(F)F)c3)cc2)ccn1` [Sorafenib, reference compound], for which the IC50 in the test with HEP3B2.1-7-Luc turned out to be 3900 nM; with HEPG2 it was 2330 nM; in the test on HUH7, 739 nM; in the test with LIXC-003, 3 nM; in the test with LIXC-004 it was 1450 nM; in the test with LIXC-006, 3350 nM. Besides, the half-inhibitory concentration (IC50) in the test with LIXC-012 was 1250 nM; in the test with LIXC-066, 1650 nM; in the test on LIXC-086 it was 1900 nM.

In the case of `CN[C@@H]1C[C@H]2O[C@@](C)([C@@H]1OC)n1c3ccccc3c3c4c(c5c6ccccc6n2c5c31)C(=O)NC4` [Staurosporine, reference compound], in the test with Dendritic cells, the IC50 was determined as 9 nM.

Take `N.N.[Cl][Pt][Cl]` [cisplatin, reference compound]: the IC50 with RPTECs amounted to 9 nM.

As for `COc1cc2nc(N3CCN(C(=O)C4COc5ccccc5O4)CC3)nc(N)c2cc1OC` (stereo not shown) [doxazosin, reference compound], the IC50 with iPS cardiomyocytes worked out at 39800 nM.

For the origin of these results see PMC8234462, “Novel Cyclophilin Inhibitor Decreases Cell Proliferation and Tumor Growth in Models of Hepatocellular Carcinoma” (Cancers, 2021).
